Data: patent US8410130B2, “Synthesis of 8H-3A-aza-cyclopenta [A ]indenes and 5,10-dihydropyrrolo[1,2-B]isoquinolines derivatives and their use as antitumor therapeutic agents” (Academia Sinica, priority 2007, dated 2013)

Key:
[1] = test system: Human colon carcinoma HCT-116 cells; assay: In vitro cytotoxicity, sulforhodamine B (SRB) assay; format: cell-based; details: Homo sapiens, HCT-116, 72-hr incubation
Excerpt: (§1) Human colon carcinoma HCT-116 cells, human prostate adenocarcinoma PC-3 and adenocarcinoma SK-OV-3 cells were obtained from American Type Culture Collection (ATCC, Rockville, Md.). Human mammary carcinoma (MX-1) tumor cells were obtained from MSKCC cell bank. The CCRF-CEM human lymphoblastic leukemia cells and their vinblastine resistant subline (CCRF-CEM/VBL, 680-fold resistance in vitro) were obtained from Dr. William Beck of the University of Illinois, Chicago, and CCRF-CEM/Taxol (330-fold resistance in vitro). Resistant cells CCRF-CEM/taxol were produced by exposing the parent cells to increasing sublethal concentration (IC50-IC90) of paclitaxel for six months.
(§2) In preparation for in vitro cytotoxicity assays, cells were cultured at an initial density 2-5×10^4 cells per milliliter. They were maintained in a 5% CO2-humidified atmosphere at 37° C. in RPMI medium 1640 (GIBCO/BRL) containing penicillin (100 units/mL), streptomycin (100 μg/mL, GIBCO/BRL), and 5% heat-inactivated FBS. For cells grown in suspension (such as CCRF-CEM and its sublines), cytotoxicity was measured, by using XTT microculture method in 96-well microtiter plates (Scudiero D A et al., Cancer Res. 1988, 48, 4827-4833). For solid tumor cells growing in a monolayer (such as MX-1 and HCT-116), cytotoxicity of the drug was determined, in duplicate, in 96-well microtiter plates by using the sulforhodamine B method (Skehan P et al., J. Natl. Cancer Inst 1990, 82, 1107-1112). For both methods, the absorbance of each well was measured with a microplate reader (Power Wave XS, Bio-Tek, Winooski, Vt.) after 72-hr incubation as described previously (Chou T-C et al., Proc. Natl. Acad. Sci. USA 2001, 98, 8113-8118). Dose-effect relationship data from 6 to 7 concentrations of each drug, in duplicate, were analyzed by using a computer program (Chou T-C et al., ComboSyn, Inc., Paramus, N J. 2005) based on the median-effect principle and plot (Chou T-C et al., Adv. Enzyme Regul. 1984, 22, 27-55; Chou T-C, Pharmacol. Rev. 2006, 58, 621-681).
(§3) The IC50 is defined by the concentration required to inhibit tumor cell growth by 50%. […] The growth inhibition of the compounds disclosed herein against human lymphoblastic leukemic cells (CCRF-CEM) and its drug-resistant sublines (resistant to vinblastine and taxol, CCRF-CEM/VBL and CCRF-CEM/taxol, respectively) is also shown in Table 5. […] Thus, the compounds disclosed herein are effective against multiple drug resistant tumors.

[2] = test system: Human mammary carcinoma (MX-1) tumor cells; assay: as above; format: cell-based; details: Homo sapiens, 72-hr incubation
Excerpt: as §1, §2, §3

[3] = test system: ovarian adenocarcinoma SK-OV-3 xenograft; assay: Therapeutic effect in nude mice bearing SK-OV-3 xenograft; format: in vivo; details: intravenous injection, on day 22
Experimental: FIGS. 4A-B illustrates the therapeutic effects of DA-1090, 1099, 1107 in nude mice bearing ovarian adenocarcinoma SK-OV-3 xenograft (i.v. inj., n=3), average tumor size changes (FIG. 4A) and average body weight changes (FIG. 4B).
(§4) Athymic nude mice bearing the nu/nu gene were obtained from NCI, Frederick, Md. and used for all human tumor xenografts. Male nude mice, 6 weeks or older, weighing 20-24 g or more were used. Compounds were administered via the tail vein for i.v. injection or infusion as described previously (Chou T-C et al., Proc. Natl. Acad. Sci. USA 2001, 98, 8113-8118). Various formulations were prepared for injections into the mice for chemotherapeutic studies. As an example, a drug was dissolved in DSMO to make a 25 mg/ml fresh solution, 0.4 ml of this solution was mixed with 0.3 ml of Tween 80, plus 1.3 ml to make 2 ml of 5 mg/ml solution. Bolus injection volume was 0.1-0.2 ml per mouse.
(§5) The therapeutic effects of N-mustard DA-1099 against human prostate adenocarcinoma PC-3 s.c. xenograft in nude mice is shown in FIGS. 3, 3A and 3B. xenograft (i.v. inj., n=3), average tumor size changes (FIG. 3A) and average body weight changes (FIG. 3B). […] Under optimal therapeutic conditions, intravenous injection, of DA-1090, 1099, and 1107, 20 (QD×4), 50 (QD×3), and 20 (QD×4) mg/kg, respectively, yielded 53%, 78%, and 71% tumor suppression, respectively, on day 22.

[4] = test system: CCRF-CEM/VBL; assay: In vitro cytotoxicity, XTT assay, vinblastine resistant subline; format: cell-based, human; details: for IC50: Homo sapiens, CCRF-CEM, XTT assay, 72-hr incubation; for fold of cross-resistant, CCRF-CEM/VBL vs IC50 of the parent cell line: numbers in brackets
Excerpt: as §1, §2, §3

[5] = test system: CCRF-CEM human lymphoblastic leukemia cells; assay: In vitro cytotoxicity, XTT assay, 72-hr incubation; format: cell-based; details: Homo sapiens, CCRF-CEM
Excerpt: as §1, §2, §3

[6] = test system: CCRF-CEM/Taxol; assay: In vitro cytotoxicity, XTT assay, taxol resistant subline; format: cell-based, human; details: for IC50: Homo sapiens, CCRF-CEM, XTT assay, 72-hr incubation; for fold of cross-resistant, CCRF-CEM/Taxol vs IC50 of the parent cell line: numbers in brackets
Excerpt: as §1, §2, §3

[7] = test system: human mammary carcinoma MX-1 xenograft; assay: Therapeutic effect in nude mice bearing MX-1 xenograft; format: in vivo; details: intravenous injection
Experimental: FIGS. 2A-B illustrates the therapeutic effect of DA-1090, 1099, 1124, 1012 and 1107 in nude mice bearing human mammary carcinoma MX-1 xenograft (i.v. inj, n=3-4), average tumor size changes (FIG. 2A) and average body weight changes (FIG. 2B).
as §4
Athymic nude mice bearing the nu/nu gene were used for human breast tumor MX-1 xenograft (FIGS. 2, 2A and 2B). Nude mice were obtained from National Cancer Institute, Frederick, Md. Male mice, 6 weeks old or older, weighing 22 g or more were used for experiments with subcutaneous tumor inoculation as described previously (Chou T-C, Pharmacol. Rev. 2006, 58, 621-681). Drug was administrated via the tail vein by iv injection. Tumor volumes were assessed by measuring length×width×height (or width) by using caliper. An example of vehicle used was 20 μL DMSO in 180 μL saline. All animal studies were conducted in accordance with the guidelines of the U.S. National Institutes of Health Guide for the Care and Use of Animals and the protocol approved by the Institutional Animal Care and Use Committee.

[8] = test system: human prostate adenocarcinoma PC-3 xenograft; assay: Therapeutic effect in nude mice bearing PC-3 xenograft; format: in vivo; details: 50 mg/kg, QD×4, i.v. inj.
Experimental: FIGS. 3A-B illustrates the therapeutic effect of DA-1099 in nude mice bearing human prostate adenocarcinoma PC-3 xenograft (i.v. inj., n=3), average tumor size changes (FIG. 3A) and average body weight changes (FIG. 3B).
as §4, §5

[9] = 18 mg/kg, every other two days (Q2D), two times
[10] = 30 mg/kg, every other two days (Q2D), two times

Row | Compound | IC50 [1] [nM] | IC50 [2] [nM] | tumor suppression ([3]; 20 mg/kg (QD×4)) [%] | IC50 [4] [nM] | fold of cross-resistant, CCRF-CEM/VBL vs IC50 of the parent cell line [4] | IC50 [5] [nM] | IC50 [6] [nM] | fold of cross-resistant, CCRF-CEM/Taxol vs IC50 of the parent cell line [6] | antitumor therapeutic effect (tumor size) [7, 9] | toxicity [7, 9] | antitumor therapeutic effect (tumor size) [7, 10] | toxicity [7, 10] | tumor suppression ([3]; 50 mg/kg (QD×3)) [%] | tumor-growth suppression [8] | antitumor therapeutic effect (tumor size) ([7]; 18 mg/kg, daily (QD) 3 times) | toxicity ([7]; 18 mg/kg, daily (QD) 3 times)
1 | Cc1c(CO)c(CO)c2n1-c1ccccc1C2 [DA-1090, (2-Hydroxymethyl-3-methyl-8H-3a-aza-cyclopenta[a]inden-1-yl)methanol] | 332 | 357 | 53 | 29.7 | [0.39x]^c | 76 | 66.3 | [0.87x] | tumor total disappearance | low toxicity | – | – | – | – | – | –
2 | Cc1c(CO)c(CO)c2n1Cc1ccccc1C2 [DA-1107, (2-Hydroxymethyl-3-methyl-5,10-dihydropyrrolo[1,2-b]isoquinolin-1-yl)methanol] | 281 | 616 | 71 | 93 | [1.15x] | 81 | 98 | [1.21x] | – | – | tumor total disappearance | low toxicity | – | – | – | –
3 | CCc1c(CO)c(CO)c2n1-c1ccccc1C2 [DA-1099, (3-Ethyl-2-hydroxymethyl-8H-3a-azacyclopenta[a]inden-1-yl)methanol] | 825 | 1080 | – | 133 | [0.37x] | 356 | 229 | [0.64x] | – | – | – | – | 78 | complete tumor-growth suppression | tumor total disappearance | low toxicity
